This note sets out measurements from patent US20150147350A1, “Method Of Treating Cancer With MEGEA3 Immunotherapeutic With BRAF Inhibitor And/Or MEK Inhibitor” (GlaxoSmithKline LLC, priority 2011, published 2015).

The test system of the series is systemic immunity. As to the kind of experiment: Peripheral blood immune-monitoring in cancer patients treated with BRAF inhibitor. The method, then:
13 patients with tumors carrying a BRAF mutation who underwent treatment with GSK2118436 (the compound of formula (I)), a V600 mutant BRAF specific inhibitor were studied to assess effects of mutant BRAF inhibition on systemic immunity. Peripheral blood immune-monitoring was carried out before and following one or two 28-day cycles of treatment.

Turning to `CC(C)(C)c1nc(-c2cccc(NS(=O)(=O)c3c(F)cccc3F)c2F)c(-c2ccnc(N)n2)s1` [GSK2118436, N-{3-[5-(2-Amino-4-pyrimidinyl)-2-(1,1-dimethylethyl)-1,3-thiazol-4-yl]-2-fluorophenyl}-2,6-difluorobenzenesulfonamide], the “impact on most immune parameters tested (serum cytokine levels, peripheral blood cell counts, leukocyte subset frequencies, memory CD4+ and CD8+ T-cell recall responses)” value (13 patients, before and following one or two 28-day cycles of treatment) was “no detectable impact”. The “serum TNF-α over the course of treatment” value (13 patients, one or two 28-day cycles of treatment) is on record as “slight increase”. Besides, the “negative impact on existing systemic immunity or the de novo generation of tumor-specific T cells” value (patients, conclusion of the study) was “no detectable negative impact”. In addition, under “three of the four human leukocyte antigen-A2-positive patients, following BRAF(V600) inhibitor therapy”, the “circulating tumor antigen-specific CD8+ T cells” value is on record as “modest increase”.
